The values that follow come from patent US7300939B2, “Substituted 1-propiolylpiperazine compounds, their preparation and use” (Gruenenthal GmbH, priority 2005, dated 2007).

Each structure is given as a SMILES string. Where a name gives a salt, the structure may show the parent alone.

Experiment [1] concerns the target T1, mGluR5 receptor (Rattus norvegicus, UniProt P31424).
T1 construct: Cortical neurons are prepared from postnatal rats (P2-6) under sterile conditions; endogenous in cells; host or cells: primary cortical neurons from postnatal rats (P2-6)
Description: Ca2+ influx in the mGluR5 receptor assay (rat cortical neurons, FlexStation). The format is cell-based. The conditions noted are these: Table I; 10 μM DHPG. An excerpt: II. Method Determination of the Ca^2+ Influx in the mGluR5 Receptor Assay
An agonistic and/or antagonistic action of substances can be determined with the following assay on the mGluR5 receptor of the rat species. According to this assay, the intracellular release of Ca^2+ after activation of the mGluR5 receptor is quantified with the aid of a Ca^2+-sensitive dyestuff (Fluo-4 type, Molecular Probes Europe BV, Leiden, Holland) in a FlexStation (Molecular Devices, Sunnyvale, USA).
Preparation of Cortical Neurons: […]
For the functional investigation, the cells are loaded with 2 μM of Fluo-4 and 0.01 vol. % Pluronic F127 (Molecular Probes Europe BV, Leiden, Holland) in HBSS buffer solution (Hank's buffer saline solution, Gibco Invitrogen GmbH, Karlsruhe, Germany) 30 min at 37° C. […] The Ca^2+-dependent fluorescence is measured before and after the addition of substances (λex=485 nm, λem=525 nm). Quantification is effected by measurement of the highest fluorescence intensity over time. […] After incubation 3 minutes, 10 μM of DHPG ((S)-3,5-dihydroxyphenylglycine, Tocris Biotrend Chemikalien GmbH, Cologne, Germany) are applied and the influx of Ca^2+ is determined simultaneously. mGluR5 antagonists led to a suppression of the Ca^2+ influx. […]

In experiment [2] the target is T2, mGluR5 receptor (Sus scrofa, UniProt I3LUI7).
T2 construct: from tissue; host or cells: pig brain halves without medulla, cerebellum and pons
T2 sequence (I3LUI7 19-1212): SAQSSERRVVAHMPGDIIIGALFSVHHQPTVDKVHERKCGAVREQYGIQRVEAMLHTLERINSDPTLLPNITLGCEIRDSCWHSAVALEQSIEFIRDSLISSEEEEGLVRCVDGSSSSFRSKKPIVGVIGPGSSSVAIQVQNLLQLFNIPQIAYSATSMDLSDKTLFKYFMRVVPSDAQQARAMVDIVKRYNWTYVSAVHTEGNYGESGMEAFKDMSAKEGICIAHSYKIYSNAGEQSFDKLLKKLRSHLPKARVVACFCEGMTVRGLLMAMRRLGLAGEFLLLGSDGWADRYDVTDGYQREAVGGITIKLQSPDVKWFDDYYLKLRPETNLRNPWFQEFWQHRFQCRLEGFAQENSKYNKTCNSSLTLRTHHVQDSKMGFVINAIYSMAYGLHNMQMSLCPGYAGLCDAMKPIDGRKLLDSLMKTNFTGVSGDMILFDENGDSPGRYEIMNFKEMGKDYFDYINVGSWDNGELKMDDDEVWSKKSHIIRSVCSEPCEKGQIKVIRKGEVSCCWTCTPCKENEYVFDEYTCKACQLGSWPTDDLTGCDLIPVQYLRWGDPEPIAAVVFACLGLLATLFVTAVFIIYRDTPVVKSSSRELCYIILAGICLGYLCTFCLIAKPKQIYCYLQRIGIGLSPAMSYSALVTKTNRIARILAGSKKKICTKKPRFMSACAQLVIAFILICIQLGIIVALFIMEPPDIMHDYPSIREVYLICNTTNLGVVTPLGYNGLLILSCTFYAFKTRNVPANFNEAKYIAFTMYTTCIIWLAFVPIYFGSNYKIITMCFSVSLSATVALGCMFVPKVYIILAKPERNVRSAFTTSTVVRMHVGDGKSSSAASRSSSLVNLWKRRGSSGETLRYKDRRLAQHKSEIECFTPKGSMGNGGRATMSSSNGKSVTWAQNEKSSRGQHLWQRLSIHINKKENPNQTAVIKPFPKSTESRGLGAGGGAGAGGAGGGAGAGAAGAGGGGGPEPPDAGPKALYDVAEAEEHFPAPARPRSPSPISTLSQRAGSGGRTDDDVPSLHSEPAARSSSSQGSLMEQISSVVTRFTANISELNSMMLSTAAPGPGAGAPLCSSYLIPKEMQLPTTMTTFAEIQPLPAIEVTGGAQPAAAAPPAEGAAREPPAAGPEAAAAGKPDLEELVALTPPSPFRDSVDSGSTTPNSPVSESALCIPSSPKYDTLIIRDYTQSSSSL
Briefly: [3H]-MPEP binding in the mGluR5 receptor binding assay (pig brain homogenate). To be noted: for mGluR5-receptor (% inhibition 10 μM) in pigs: pig brain homogenate, 5 nM [3H]-MPEP. How it is done: I. Method the Determination of the Inhibition of the [^3H]-MPEP Binding in the mGluR5 Receptor Binding Assay
Pig brain homogenate is prepared by homogenization (Polytron PT 3000, Kinematica AG, 10,000 revolutions per minute 90 seconds) of pig brain halves without medulla, cerebellum and pons in a buffer solution having a pH of 8.0 (30 mM of hepes, Sigma, order no. H3375+1 tablet of Complete to 100 ml, Roche Diagnostics, order no. 1836145) in a ratio of 1:20 (brain weight/volume) and differential centrifugation at 900×g and 40,000×g. In each case 450 μg of protein from brain homogenate are incubated with 5 nM [^3H]-MPEP (Tocris, order no. R1212) (MPEP=2-methyl-6-(3-methoxyphenyl)ethynylpyridine) and the compounds to be investigated (10 μM in the test) in a buffer solution (as above) in 250 μl incubation batches in 96-well microtiter plates at room temperature 60 min.
Thereafter, the batches are filtered with the aid of a Brandel cell harvester (Brandel, Robotic 9600 model) onto Unifilter plates with glass fiber filter mats (Perkin Elmer, order no. 6005177) and then rinsed with buffer solution (as above) 3 times with 250 μl per sample each time. The filter plates are then dried 60 min at 55° C. 30 μl Ultima Gold™ scintillator (Packard BioScience, order no. 6013159) are subsequently added per well and, after 3 hours, the samples are measured on a β-counter (Mikrobeta, Perkin Elmer). The non-specific binding is determined by addition of 10 μM of MPEP (Tocris, order no. 1212).

The subject of the next experiment is rats. Briefly: Formalin test in rats. In kind it is in vivo, rat.

The IC50 is the point on the concentration scale where inhibition reaches its midpoint.

T1 sequence (P31424 21-1203): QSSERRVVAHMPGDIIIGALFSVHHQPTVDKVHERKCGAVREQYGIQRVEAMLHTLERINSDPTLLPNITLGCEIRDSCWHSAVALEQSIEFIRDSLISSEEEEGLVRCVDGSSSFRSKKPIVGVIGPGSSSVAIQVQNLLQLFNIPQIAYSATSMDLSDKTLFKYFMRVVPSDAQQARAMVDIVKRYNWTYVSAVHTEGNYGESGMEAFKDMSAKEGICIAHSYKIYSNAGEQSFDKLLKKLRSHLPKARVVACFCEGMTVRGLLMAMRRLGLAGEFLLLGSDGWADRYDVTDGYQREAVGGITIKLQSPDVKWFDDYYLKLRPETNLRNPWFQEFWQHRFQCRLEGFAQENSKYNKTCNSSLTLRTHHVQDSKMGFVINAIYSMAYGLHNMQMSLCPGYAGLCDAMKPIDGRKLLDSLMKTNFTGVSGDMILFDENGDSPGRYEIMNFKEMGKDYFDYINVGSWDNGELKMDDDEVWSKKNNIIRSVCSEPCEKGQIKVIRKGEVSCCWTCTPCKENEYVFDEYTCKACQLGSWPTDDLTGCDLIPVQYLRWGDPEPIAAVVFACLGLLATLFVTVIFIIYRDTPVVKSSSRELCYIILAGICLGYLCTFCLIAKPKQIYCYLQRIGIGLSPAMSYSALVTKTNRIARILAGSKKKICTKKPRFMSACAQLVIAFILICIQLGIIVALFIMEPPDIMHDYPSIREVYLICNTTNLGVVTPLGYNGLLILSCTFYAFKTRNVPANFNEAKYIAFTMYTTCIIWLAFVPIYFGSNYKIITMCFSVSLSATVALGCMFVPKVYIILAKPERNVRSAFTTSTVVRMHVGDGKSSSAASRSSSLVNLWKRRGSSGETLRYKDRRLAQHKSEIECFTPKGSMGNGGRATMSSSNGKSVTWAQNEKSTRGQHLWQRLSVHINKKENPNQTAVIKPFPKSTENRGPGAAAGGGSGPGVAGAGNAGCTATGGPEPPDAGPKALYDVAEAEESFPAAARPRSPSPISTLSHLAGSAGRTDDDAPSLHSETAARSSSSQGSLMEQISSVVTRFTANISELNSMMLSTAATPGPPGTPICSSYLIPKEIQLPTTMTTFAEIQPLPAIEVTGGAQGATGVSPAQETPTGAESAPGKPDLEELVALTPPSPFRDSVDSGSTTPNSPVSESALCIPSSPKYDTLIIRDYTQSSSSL

Turning to `O=C(C#Cc1ccccc1)N1CCN(c2nccs2)CC1` [Example 1, 1-(3-phenylpropiolyl)-4-(thiazol-2-yl)piperazine], the IC50 on mGluR5 receptor [1] came out at 190 nM; at mGluR5 receptor [2] (Table I), 100 nM. On to `O=C(C#Cc1cccc(Cl)c1)N1CCN(c2nccs2)CC1` [Example AAA24, 4-(Thiazol-2-yl)-1-(3-(3-chlorophenyl)propiolyl)piperazine], for which the “Reduction of nociceptive behavior of rats compared with control rats [%]” value (“Reduction of nociceptive behavior of rats … [%]” below) in the experiment on rats (46.4 mg/kg i.p.) is listed as 43%. The “mGluR5-receptor (% inhibition 10 μM) in pigs” value on mGluR5 receptor [2] was 88%. With `Cc1cccc(C#CC(=O)N2CCN(c3nccs3)CC2)c1.Cl` [Example AAA54, 4-(Thiazol-2-yl)-1-(3-(3-tolyl)propiolyl)piperazine hydrochloride], the “Reduction of nociceptive behavior of rats … [%]” value in the experiment with rats (10.0 mg/kg i.v.) was determined as 72%. Moreover, the “mGluR5-receptor (% inhibition 10 μM) in pigs” value on mGluR5 receptor [2] amounted to 97%. Regarding `O=C(C#Cc1ccccc1)N1CCN(c2nccs2)CC1` [Example AAA56, 4-(Thiazol-2-yl)-1-(3-phenylpropiolyl)piperazine hydrochloride], the “Reduction of nociceptive behavior of rats … [%]” value in the experiment with rats (46.4 mg/kg i.p.) came to 85%. The compound also showed an IC50 on mGluR5 receptor [2] (Table II, unit inferred) of 150 nM. On to `Cc1cccc(C#CC(=O)N2CCN(c3nccs3)CC2C)c1` (stereo not shown) [Example AAA68, 2-Methyl-4-(thiazol-2-yl)-1-(3-(3-tolyl)propiolyl)piperazine], for which, in the experiment on rats (46.4 mg/kg p.o.), the “Reduction of nociceptive behavior of rats … [%]” value is on record as 66%. For the same compound, the IC50 at mGluR5 receptor [2] (Table II, unit inferred) turned out to be 13 nM. As for `CS(=O)(=O)c1nsc(N2CCN(C(=O)C#Cc3ccccc3)CC2)n1` [Example AAA00101, 4-(3-Methansulfonyl-1,2,4-thiadiazol-5-yl)-1-(3-phenylpropiolyl)piperazine], the “mGluR5-receptor (% inhibition 10 μM) in pigs” value at mGluR5 receptor [2] was 30%. On the same count and under the same terms, to `COc1nsc(N2CCN(C(=O)C#Cc3ccccc3)CC2)n1` [Example AAA00102, 4-(3-Methoxy-1,2,4-thiadiazol-5-yl)-1-(3-phenylpropiolyl)piperazine] belongs 61%; to `O=C(C#Cc1ccccc1)N1CCN(c2ncns2)CC1` [Example AAA00103, 4-(1,2,4-Thiadiazol-5-yl)-1-(3-phenylpropiolyl)piperazine], 83%.

`Cc1nsc(N2CCN(C(=O)C#Cc3ccccc3)CC2)n1` [Example AAA00104, 4-(3-Methyl-1,2,4-thiadiazol-5-yl)-1-(3-phenylpropiolyl)piperazine]: the “mGluR5-receptor (% inhibition 10 μM) in pigs” value on mGluR5 receptor [2] came to 91%. As to `O=C(C#Cc1ccccc1)N1CCN(c2nc(C(F)(F)F)ns2)CC1` [Example AAA00105, 4-(3-Trifluoromethyl-1,2,4-thiadiazol-5-yl)-1-(3-phenylpropiolyl)piperazine], the “mGluR5-receptor (% inhibition 10 μM) in pigs” value at mGluR5 receptor [2] came out at 65%. For the compound `Cc1noc(-c2cnc(N3CCN(C(=O)C#Cc4ccccc4)CC3)s2)n1` [Example AAA00106, 4-(5-(3-Methyl-1,2,4-oxadiazol-5-yl)thiazol-2-yl)-1-(3-phenylpropiolyl)piperazine], on mGluR5 receptor [2], the “mGluR5-receptor (% inhibition 10 μM) in pigs” value was determined as 68%.

With `CC(C)(C)c1csc(N2CCN(C(=O)C#Cc3ccc(N)cc3)CC2)n1` [Example AAA00107, 4-(4-tert-Butylthiazol-2-yl)-1-(3-(4-aminophenyl)propiolyl)piperazine], on mGluR5 receptor [2], the “mGluR5-receptor (% inhibition 10 μM) in pigs” value stood at 30%. With `Cn1ccc2ccc(C#CC(=O)N3CCN(c4nccs4)CC3)cc21` [Example AAA00108, 4-(Thiazol-2-yl)-1-(3-(1-Methyl-indol-6-yl)propiolyl)piperazine], on mGluR5 receptor [2] (Table II, unit inferred), the IC50 was 1240 nM. As to `Cc1cc(F)cc(C#CC(=O)N2CCN(c3nccs3)CC2)c1` [Example AAA00110, 4-(Thiazol-2-yl)-1-(3-(3-fluoro-5-methylphenyl)propiolyl)piperazine], the IC50 at mGluR5 receptor [2] (Table II, unit inferred) came out at 1390 nM. With `Cc1cccc(C#CC(=O)N2CCN(c3nccs3)CC2)c1F` [Example AAA00111, 4-(Thiazol-2-yl)-1-(3-(2-fluoro-3-methylphenyl)propiolyl)piperazine], the “mGluR5-receptor (% inhibition 10 μM) in pigs” value at mGluR5 receptor [2] is 31%. With `CNc1cccc(C#CC(=O)N2CCN(c3nccs3)CC2)c1` [Example AAA00112, 4-(Thiazol-2-yl)-1-(3-(3-methylaminophenyl)propiolyl)piperazine], the IC50 on mGluR5 receptor [2] (Table II, unit inferred) was 560 nM. Consider `CN(C)c1cccc(C#CC(=O)N2CCN(c3nccs3)CC2)c1` [Example AAA00113, 4-(Thiazol-2-yl)-1-(3-(3-dimethylaminophenyl)propiolyl)piperazine], for which, at mGluR5 receptor [2], the “mGluR5-receptor (% inhibition 10 μM) in pigs” value is 27%.

`CN(C)C(=O)C#CC(=O)N1CCN(c2nccs2)CC1` [Example AAA00114, 4-(Thiazol-2-yl)-1-(dimethylcarbamoylpropiolyl)piperazine]: the “mGluR5-receptor (% inhibition 10 μM) in pigs” value at mGluR5 receptor [2] amounted to 14%.

Regarding `C[S+]([O-])c1cccc(C#CC(=O)N2CCN(c3nccs3)CC2)c1` (stereo not shown) [Example AAA00115, 4-(Thiazol-2-yl)-1-(3-(3-methylsulfinylphenyl)propiolyl)piperazine], on mGluR5 receptor [2], the “mGluR5-receptor (% inhibition 10 μM) in pigs” value is 17%.

As to `CS(=O)(=O)c1cccc(C#CC(=O)N2CCN(c3nccs3)CC2)c1` [Example AAA00116, 4-(Thiazol-2-yl)-1-(3-(3-methylsulfonylphenyl)propiolyl)piperazine], the “mGluR5-receptor (% inhibition 10 μM) in pigs” value at mGluR5 receptor [2] is recorded as 31%.

`C#Cc1cccc(C#CC(=O)N2CCN(c3nccs3)CC2)c1` [Example AAA00117, 4-(Thiazol-2-yl)-1-(3-(3-ethynylphenyl)propiolyl)piperazine] registered a half-inhibitory concentration (IC50) at mGluR5 receptor [2] (Table II, unit inferred) of 26 nM. Consider `CCc1cccc(C#CC(=O)N2CCN(c3nccs3)CC2)c1` [Example AAA00120, 4-(Thiazol-2-yl)-1-(3-(3-ethylphenyl)propiolyl)piperazine], for which the IC50 on mGluR5 receptor [2] (Table II, unit inferred) worked out at 260 nM. As to `O=C(C#Cc1cccc(C(F)F)c1)N1CCN(c2nccs2)CC1` [Example AAA00122, 4-(Thiazol-2-yl)-1-(3-(3-difluoromethylphenyl)propiolyl)piperazine], the IC50 at mGluR5 receptor [2] (Table II, unit inferred) is 62 nM.
